Literature values, collected in patent publication US6432400B1, “Specific pancreatic lipase inhibitors and their applications” (Laboratoire Laphal (Laboratoire de Pharmacologie Appliquee), priority 1997, dated 2002).

What was measured:
pancreatic lipase = biological target: T1, pancreatic lipase (Homo sapiens, UniProt P16233); settings: 1 mol of THL/mol of enzyme
T1 sequence (P16233 17-465): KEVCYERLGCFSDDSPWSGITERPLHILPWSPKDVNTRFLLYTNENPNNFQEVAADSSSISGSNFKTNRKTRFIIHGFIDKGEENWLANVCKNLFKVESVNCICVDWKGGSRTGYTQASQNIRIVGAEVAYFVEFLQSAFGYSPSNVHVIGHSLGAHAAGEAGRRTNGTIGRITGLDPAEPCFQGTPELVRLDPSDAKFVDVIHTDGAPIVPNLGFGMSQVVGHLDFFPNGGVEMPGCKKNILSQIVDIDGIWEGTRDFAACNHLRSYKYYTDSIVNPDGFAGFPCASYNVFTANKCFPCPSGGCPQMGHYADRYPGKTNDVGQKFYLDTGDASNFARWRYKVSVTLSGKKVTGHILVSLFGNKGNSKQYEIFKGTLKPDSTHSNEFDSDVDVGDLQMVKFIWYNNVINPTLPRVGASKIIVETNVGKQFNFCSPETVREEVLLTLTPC

[1] = system: carboxylester lipase, gastric lipase and lipase stimulated by the bile salts in human milk; settings: inhibits carboxylester lipase, gastric lipase and bile-salt-stimulated lipase of human milk

In the case of `CCCCCCCCCCC[C@@H](C[C@@H]1OC(=O)[C@H]1CCCCCC)OC(=O)[C@H](CC(C)C)NC=O` [THL, tetrahydrolipstatin], the “inhibition of the lipolytic activity” value (pancreatic lipase) is listed as “complete inhibition” and the “specificity for pancreatic lipase” value [1] is listed as “not specific for pancreatic lipase”.
